Columns and labels:
[1] = tested on: Cricetinae gen. sp.; experiment: Ability to protect microvascular damages in ischemia/reperfusion (in vivo) was determined by measuring the inhibition of leaky sites, 30-min after the start of reperfusion at 30 mg/kg; type: functional, Cricetulus griseus; conditions: 0.5 h
[2] = Antioxidant efficiency of compounds was evaluated by the lag phase duration until onset of linoleate peroxidation induced by AAPH

Row | Compound | Lag time [2] | inhibition in vivo at 30 mg/kg [1]
1 | Oc1c(-c2ccc3ccccc3c2)nc2cnccn12 | 74.9 min | 57%
2 | Cc1nc2cnccn2c1O | 134 min | 49%
3 | Oc1c(-c2ccc(F)cc2)nc2cnccn12 | 122 min | 37%
4 | Cc1ccc(-c2nc3cnccn3c2O)cc1 | 78.7 min | 67%
5 | COc1ccc(-c2nc3cnccn3c2O)cc1 | 79.6 min | 85%
6 | COc1cc(C(C)=O)ccc1O [APOCYNIN] |  | 59%
7 | Oc1c(-c2ccc(Cl)cc2)nc2cnccn12 | 111 min | 82%

Continued, in another order:

Row | Lag time [2] | Compound | inhibition in vivo at 30 mg/kg [1]
8 | 128 min | Cc1c(C)c2c(c(C)c1O)CCC(C)(C(=O)O)O2 (stereo not drawn) | 
9 | 146 min | Oc1c(-c2ccccc2)nc2cnccn12 | 79%
10 | 77.5 min | Oc1c(-c2ccc(-c3ccccc3)cc2)nc2cnccn12 | 71%

— ChEMBL document CHEMBL1144967, “Protective effect of imidazolopyrazinone antioxidants on ischemia/reperfusion injury” (2003)
